Data as given in publication PMC7307906, “Macrocyclic Modalities Combining Peptide Epitopes and Natural Product Fragments” (Journal of the American Chemical Society, 2020).
Where a SMILES comes first, the peptide text is derived from it.

Tests used:
human MC1R [1] = molecular target: T1, human MC1R (Homo sapiens, UniProt Q01726); assay: cAMP assay (LANCE) in T-Rex-293 cells expressing MC1R; format: cell-based
T1 construct: expressed in transfected cells

human MC5R = molecular target: T2, human MC5R (Homo sapiens, UniProt P33032); assay: Melanocortin receptor radioligand binding (SPA, [125I]-NDP-α-MSH displacement), MC5R; details: competitive binding, [125I]-NDP-α-MSH; mean (± SEM) of at least three independent experiments; read-out: IC50 hMC5R binding
T2 construct: expressed in transfected cells; host or cells: HEK293-6E suspension cells, transient expression; membranes
T2 sequence (P33032 whole entry): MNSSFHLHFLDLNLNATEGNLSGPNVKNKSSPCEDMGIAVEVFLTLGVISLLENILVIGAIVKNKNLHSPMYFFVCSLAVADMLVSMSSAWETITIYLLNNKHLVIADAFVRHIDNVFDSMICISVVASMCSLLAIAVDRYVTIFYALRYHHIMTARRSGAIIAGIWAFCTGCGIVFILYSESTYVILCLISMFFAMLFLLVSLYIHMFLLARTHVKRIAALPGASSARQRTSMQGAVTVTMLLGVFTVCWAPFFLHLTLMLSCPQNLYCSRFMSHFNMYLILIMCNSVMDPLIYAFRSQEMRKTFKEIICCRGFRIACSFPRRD

human MC3R [2] = molecular target: T3, human MC3R (Homo sapiens, UniProt P41968); assay: cAMP assay (LANCE) in T-Rex-293 cells expressing MC3R; format: cell-based; details: cAMP assay; mean (± SEM) of at least three independent experiments; read-out: EC50 hMC3R cAMP
T3 construct: expressed in transfected cells
T3 sequence (P41968 whole entry): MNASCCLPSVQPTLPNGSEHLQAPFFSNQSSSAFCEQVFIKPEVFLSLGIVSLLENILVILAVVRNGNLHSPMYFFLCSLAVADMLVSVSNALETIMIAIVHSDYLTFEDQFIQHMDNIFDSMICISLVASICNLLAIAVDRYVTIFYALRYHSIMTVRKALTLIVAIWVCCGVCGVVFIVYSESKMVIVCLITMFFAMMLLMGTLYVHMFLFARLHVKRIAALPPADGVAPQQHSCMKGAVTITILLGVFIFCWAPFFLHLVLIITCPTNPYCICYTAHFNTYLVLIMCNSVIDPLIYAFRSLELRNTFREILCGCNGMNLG

human MC3R [3] = molecular target: T3, human MC3R; assay: Melanocortin receptor radioligand binding (SPA, [125I]-NDP-α-MSH displacement), MC3R; details: competitive binding, mean (± SEM) of at least three independent experiments, read-out: IC50 hMC3R binding
human MC4R [4] = molecular target: T4, human MC4R (Homo sapiens, UniProt P32245); assay: cAMP assay (LANCE) in T-Rex-293 cells expressing MC4R; format: cell-based; details: cAMP assay; mean (± SEM) of at least three independent experiments; read-out: EC50 hMC4R cAMP
T4 construct: expressed in transfected cells
T4 sequence (P32245 whole entry): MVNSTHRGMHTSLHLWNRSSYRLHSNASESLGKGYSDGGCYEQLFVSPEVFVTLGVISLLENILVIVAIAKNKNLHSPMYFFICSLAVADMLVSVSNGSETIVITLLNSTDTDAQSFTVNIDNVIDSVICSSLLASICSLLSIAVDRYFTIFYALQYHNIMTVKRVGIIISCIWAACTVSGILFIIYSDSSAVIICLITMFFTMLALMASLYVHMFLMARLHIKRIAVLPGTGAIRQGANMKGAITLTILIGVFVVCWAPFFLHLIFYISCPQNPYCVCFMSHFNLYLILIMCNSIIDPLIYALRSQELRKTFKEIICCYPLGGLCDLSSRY

human MC4R [5] = molecular target: T4, human MC4R; assay: Melanocortin receptor radioligand binding (SPA, [125I]-NDP-α-MSH displacement), MC4R; details: competitive binding, mean (± SEM) of at least three independent experiments, read-out: IC50 hMC4R binding
hMC1−5R = assay: Melanocortin receptor radioligand binding, result stated for all receptors together; set-up: species or system human; details: human MC receptors, radioligand binding
Source text: Example concentration response curves for selected PepNats in MC1R, MC3R, MC4R, MC5R radioligand binding assays and MC1R, MC3R, MC4R cAMP assays. Responses were normalized to reference agonist NDP -α-MSH and presented as % effect of control, with full competition in binding defined as -100% and full agonism in cAMP assays defined as […]
binding assay. Threshold to define a compound as active was set to -30% in binding assays and 20% in cAMP assays respectively. Data are from at least three independent experiments and error bars represent ± Standard Error of the […]
% s p e c ific b in d in g o f
(1 picture or pasted object on this page, not shown here) […]
expression, MC1R and MC4R transfected cells were treated with 0.1 ng /mL and MC3R transfected cells with 10 ng/mL doxycyclin, for 24 h before assay.
Melanocortin receptor radioligand binding and cAMP assays.
Binding and cAMP assays were performed as described by Durek et al.7 “A 384-well format scintillation proximity assay (SPA) was used to identify compounds that show competitive binding to the human Melanocortin receptor 1,3,4 or 5 ligand binding domain (LBD). […] The inhibition of the scintillation signal by displacement of [ 125I]- NDP-α-MSH by test compounds were detected by a 1450 MicroBeta Trilux scintillation counter […]
Plates were incubated for 16-23 h in the dark at room temperature before reading on a 1450 […]
Measurements of cAMP production were performed using LANCE® cAMP kits (PerkinElmer) in a total assay volume of 12 µl/well. […] The reaction was stopped with detection buffer containing 10 µM Biotin-cAMP and 15 µM LANCE Eu-W8044 labelled streptavidin (PerkinElmer LANCE cAMP kit). cAMP production was detected by homogenous time resolved fluorescence (HTRF) (λex = 340 nm, λem = 665 and 615 nm) using a Pherastar (BMG Labtech).
PepNats, literature compounds and references were tested in ten-point concentration response (½ log serial dilution) with 100, 10 or 1 µM as final start concentrations. Raw data output was analyzed in Screener software (Genedata AG) and pEC50 and pIC50 values calculated using a four-

human MC1R [6] = molecular target: T1, human MC1R; assay: Melanocortin receptor radioligand binding (SPA, [125I]-NDP-α-MSH displacement), MC1R; details: competitive binding, mean (± SEM) of at least three independent experiments, read-out: IC50 hMC1R binding

T1 sequence (Q01726 whole entry): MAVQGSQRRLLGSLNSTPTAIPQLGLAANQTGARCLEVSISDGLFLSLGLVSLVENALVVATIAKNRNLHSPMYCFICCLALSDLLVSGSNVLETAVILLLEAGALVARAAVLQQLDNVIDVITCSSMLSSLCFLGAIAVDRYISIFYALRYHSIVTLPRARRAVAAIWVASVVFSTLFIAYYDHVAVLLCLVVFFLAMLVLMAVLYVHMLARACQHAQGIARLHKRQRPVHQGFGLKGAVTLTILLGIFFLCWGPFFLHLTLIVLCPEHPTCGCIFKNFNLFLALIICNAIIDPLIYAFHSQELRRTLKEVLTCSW

Emax (human MC1R [1]; T-REx-293, read-out: % Effect hMC1R cAMP): 44%
agonistic activity at MC1R (in words) (human MC1R [1]; cAMP assay, hMC1R): weak partial agonistic activity
EC50 (human MC1R [1]; cAMP assay, mean (± SEM) of at least three independent experiments, read-out: EC50 hMC1R cAMP): 1200 ± 400 nM
IC50 (human MC5R): 1600 ± 300 nM
EC50 (human MC3R [2]): > 100000 nM
IC50 (human MC3R [3]): 1600 ± 100 nM
EC50 (human MC4R [4]): > 100000 nM
IC50 (human MC4R [5]): 180 ± 10 nM
binding to the MC receptors (in words) (hMC1−5R): micromolar affinity
IC50 (human MC1R [6]): 10000 ± 1000 nM
Compound: C[C@@H]1NC(=O)[C@H](CC(N)=O)NC(=O)[C@H](Cc2ccccc2)NC(=O)[C@H](Cc2ccccc2)NC(=O)[C@H](CCCNC(=N)N)NC(=O)[C@@H](NC(=O)[C@@H](N)Cc2ccc(O)cc2)CSSC[C@@H](C(=O)N[C@@H](Cc2ccc(O)cc2)C(N)=O)NC(=O)[C@H](Cc2ccccc2)NC1=O [compound 28, reference compound] (HELM PEPTIDE1{Y.C.R.F.F.N.A.F.C.Y.[am]}$PEPTIDE1,PEPTIDE1,2:R3-9:R3$$$V2.0)
